Reference: US20170008896A1, “HETEROARYL SYK INHIBITORS” (BOEHRINGER INGELHEIM INTERNATIONAL GMBH, priority 2014, published 2017)
Like-named read-outs stand apart in the source and are kept apart here.

Legend:
FLT3 = molecular target: T1, FLT3 (Homo sapiens, UniProt P36888); assay: FLT3 Kinase Test (Z'-LYTE); type: biochemical
T1 construct: purchased Invitrogen PV3182
T1 sequence (P36888 564-993 limits assumed): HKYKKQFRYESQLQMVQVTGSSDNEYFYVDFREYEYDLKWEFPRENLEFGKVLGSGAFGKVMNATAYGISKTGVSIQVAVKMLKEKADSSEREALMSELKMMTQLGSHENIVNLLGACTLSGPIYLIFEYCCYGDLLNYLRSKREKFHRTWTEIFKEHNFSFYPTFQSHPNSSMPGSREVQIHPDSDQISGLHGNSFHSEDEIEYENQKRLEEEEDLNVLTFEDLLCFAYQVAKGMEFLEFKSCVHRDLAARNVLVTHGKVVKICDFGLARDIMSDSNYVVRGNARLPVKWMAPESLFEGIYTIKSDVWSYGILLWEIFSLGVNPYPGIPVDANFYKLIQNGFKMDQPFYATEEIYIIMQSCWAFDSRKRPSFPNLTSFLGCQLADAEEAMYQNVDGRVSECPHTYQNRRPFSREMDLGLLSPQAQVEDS
Procedure: FLT3 is obtained from Invitrogen in 50 mM Tris (pH7.5); 100 mM NaCl; 0.05 mM EDTA, 0.05% NP-40, 2 mM DTT; 50% Glycerol #PV3182; Lot 286671; sequence see below). The enzyme is diluted to 720 nM (35 μg/ml) in enzyme dilution buffer and 10 μl aliquots are stored at −80° C.
The activity of FLT3 is measured using the Z′-LYTETM assay technology from Invitrogen (#PV3191)
The assay is performed in 384 black plates from Corning (#3676) in a final volume of 10 μl by adding 5 μl of kinase peptide mix and 2.5 μl of compound dilution. The reaction is started by addition of 2.5 μl of the 4×]ATP solution.
(§1) Positive controls are reaction mixtures containing no test compound; negative controls (blanks) are reaction mixtures containing no kinase. As a further control, the phosphopeptide solution is added to wells without kinase(=100% phosphorylation control). The non inhibited kinase reaction will result in a phosphorylation corresponding to 20%-30% of the phosphorylation control.
The reaction is performed for 1 h at room temperature before 5 μl of the development solution is added. After a further incubation for 1 h at room temperature 5 μl of the stop reagent is added. The plates are read on a Flex Station II 384 (Molecular Devices).
The output text file is evaluated in an “MS-Excel-VB-Makro” and “GraphPadPrism”(Version 5) (GraphPad Software Inc.) is used to calculate the results. Data for the inhibition of FLT3 are reported in M. data for the inhibition of the protease are reported in % CTL.

[1] = Human Liver Microsomal Stability Test; type: in vitro ADME; conditions: human liver microsomes, 1 μM test compound, 37° C.; for micosomal stability Cl: Table 2a
Procedure: The metabolic degradation for a specific SYK-inhibitor is performed at 37° C. with pooled human liver microsomes (human liver microsomes are commercially available as “BD UltraPool™” by Corning Life Sciences, Fogostraat 12, 1060 LJ Amsterdam, The Netherlands). The final incubation volume of 100 μl per time point contains TRIS buffer pH 7.6 at RT (0.1 M), magnesium chloride (5 mM), microsomal protein (1 mg/ml) and the test compound at a final concentration of 1 μM.
Following a short preincubation period at 37° C., the reaction is initiated by addition of beta-nicotinamide adenine dinucleotide phosphate in its reduced form (NADPH, 1 mM) and terminated by transfering an aliquot into solvent after different time points. Additionally, the NADPH-independent degradation is monitored in incubations without NADPH, terminated at the last time point.
The quenched (terminated) incubations are then pelleted by centrifugation (10000 g, 5 min).
An aliquot of the supernatant is assayed by LC-MS/MS for the remaining amount of parent compound. The half-life (t1/2 INVITRO) is determined by the slope of the semilogarithmic plot of the concentration-time profile.
The intrinsic clearance (CL_[…]) is calculated by considering the amount of protein in the incubation:
CL_[…] [μl/min/mg protein]=(Ln 2/(t1/2 INVITRO [min] * protein content [mg/ml]))*1000
The protein content [mg/ml] was determined with the “Bicinchoninic Acid Kit” of Sigma Aldrich (commercially available).
The upscaled intrinsic Clearance (CL_UP_INT) is calculated by considering the liver weight [g liver/kg body weight] and the microsomal recovery [mg protein/g liver]:
CL_UP_INT [ml/min/kg]=0.001*CL_[…]*liver weight*microsomal recovery • with microsomal recovery=45 mg protein/g liver • with liver weight=25.7 g liver/kg body weight
The percent hepatic blood flow (% Qh) is finally calculated by considering the human liver blood flow Q [ml/min/kg]:
% Qh [%]=((Q*CL_UP_INT)/(Q+CL_UP_INT)/Q)*100 • with liver blood flow (Q)=20.7 ml/min/kg.

Human GSK3beta = molecular target: T2, Human GSK3beta (Homo sapiens, UniProt P49841); assay: GSK 3β Kinase-Test (Z'-LYTE); type: biochemical
T2 construct: purchased University Dundee/Scotland (Dr. James Hastie, Dept. of Biochemistry); host or cells: SF21 insect cells
Procedure: Human GSK3beta (expressed and purified from SF21 cells)is obtained from the University Dundee/Scotland (Dr. James Hastie—Dept. of Biochemistry) in 50 mM Tris (pH7.5); 150 mM NaCl; 0.1 mM EGTA, 270 mM Succrose, 0.1% R-mercaptoethanol, 1 mM benzamidine, 0.2 mM PMSF; sequence see below). The enzyme is diluted to 3.56 μM (168 μg/ml) in enzyme dilution buffer and 6 μl aliquots are stored at −80° C.
The activity of GSK3β kinase protein is measured using the Z′-LYTETM assay technology from Invitrogen (#PV3324).
The assay is performed in 384 black plates from Corning (#3676) in a final volume of 10 μl by adding 5 μl of kinase peptide mix and 2.5 μl of compound dilution. The reaction is started by addition of 2.5 μl of the 4× ATP solution.
as §1, with “ATP.” for “kinase.”, “kinase and without ATP(=100%” for “kinase(=100%”
The reaction is performed 1 h at room temperature. After 1 h 5 μl of the development solution is added. After a further incubation for 1 h at room temperature 5 μl of the stop reagent is added. Finally the plates are read on a Flex Station II 384 (Molecular Devices).
The output text file is evaluated in an “MS-Excel-VB-Makro” and “Graph Pad Prism”(Version 5) (GraphPad Software Inc.) is used to calculate the results. Data for the inhibition of GSK3beta are reported in M. data for the inhibition of the protease are reported in % CTL.

[2] = molecular target: T3, Recombinant human Aurora B (amino acids 1-344), His tag (Homo sapiens, UniProt Q96GD4); assay: Aurora B Kinase Test (ADP Glo luminescence); type: biochemical
T3 construct: Recombinant human Aurora B (amino acids 1-344, clone number DU1773)
Procedure: The activity of the Aurora B kinase protein was determined using the ADP Glo® Luminescence Kinase test (Promega; V9103X).
Serial Dilution is done in 1:10 steps in 100% DMSO.
Then 20 μl Kinase detection mix (Detection Buffer #V913B Promega; Kinase Detection Substrate #V914B Promega) were added and incubated for 40 minutes at room temperature.
(§2) The output file of the reader is a csv file that contains the well number and measured RLU. For data evaluation and calculation, the measurement of the negative control was set as 0% ctrl and the measurement of the positive control was set as 100% ctrl. Based on this values the % value for the measurement of each substance concentration was calculated using an Assay Explorer software (Accelrys). Normally, the % ctrl values calculated are between 0% and 100% values but may also occur outside these limits in individual cases based on variability or compound characteristics. The IC50 values were calculated from the % ctrl values using Assay Explorer software.Calculation: [y=(a−d)/(1+(x/c)̂b)+d], a=low value, d=high value; x=conc M; c=IC50 M; b=hill; y=% ctrl.

[3] = molecular target: T4, Recombinant human Syk (amino acids 342-635), GST fusion (Homo sapiens, UniProt P43405); assay: Syk Kinase Test (Kinase Glo luminescence); type: biochemical; conditions: Table 1; read-out: SYK-inhibition IC50-value
T4 construct: Recombinant human Syk (amino acids 342-635); made in house
Procedure: as §2, with “measured relative light units (RLU).” for “measured RLU.”, “as 100%” for “as 0%”, “as 0%” for “as 100%”, “Explorer software.” for “Explorer software.Calculation: [y=(a−d)/(1+(x/c)̂b)+d], a=low value, d=high value; x=conc M; c=IC50 M; b=hill; y=% ctrl.”

[4] = patients with ITP (Podolanczuk et al; Blood (2009)); cited from earlier work
[5] = Table 2c, compounds of WO 2011/092128, read-out: IC50 (FLT3-Inhibition)
[6] = Table 2c, compounds of WO 2011/092128, read-out: IC50 (GSK3beta-Inhibition)
[7] = Table 2c, compounds of WO 2011/092128, read-out: IC50 (AURB-Inhibition)
[8] = Table 1, read-out: FLT3-inhibition IC50-value
[9] = Table 2a, compounds of the invention, read-out: GSK3-beta inhib. IC50-value
[10] = Table 1, read-out: AURB-inhibition IC50-value
[11] = Table 2a, compounds of the invention, read-out: AURB-inhibition IC50-value

T3 sequence (Q96GD4 whole entry, the tested form may be a part): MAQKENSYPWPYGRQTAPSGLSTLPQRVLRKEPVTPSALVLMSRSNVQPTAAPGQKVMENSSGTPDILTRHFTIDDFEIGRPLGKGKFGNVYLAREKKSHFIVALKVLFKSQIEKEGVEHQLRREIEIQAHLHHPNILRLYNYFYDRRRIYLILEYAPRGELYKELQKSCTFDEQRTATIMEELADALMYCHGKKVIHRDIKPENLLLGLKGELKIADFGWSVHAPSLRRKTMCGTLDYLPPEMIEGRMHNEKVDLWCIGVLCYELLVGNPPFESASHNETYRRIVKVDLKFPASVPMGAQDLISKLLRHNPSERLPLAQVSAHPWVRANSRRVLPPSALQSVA
T2 sequence (P49841 whole entry): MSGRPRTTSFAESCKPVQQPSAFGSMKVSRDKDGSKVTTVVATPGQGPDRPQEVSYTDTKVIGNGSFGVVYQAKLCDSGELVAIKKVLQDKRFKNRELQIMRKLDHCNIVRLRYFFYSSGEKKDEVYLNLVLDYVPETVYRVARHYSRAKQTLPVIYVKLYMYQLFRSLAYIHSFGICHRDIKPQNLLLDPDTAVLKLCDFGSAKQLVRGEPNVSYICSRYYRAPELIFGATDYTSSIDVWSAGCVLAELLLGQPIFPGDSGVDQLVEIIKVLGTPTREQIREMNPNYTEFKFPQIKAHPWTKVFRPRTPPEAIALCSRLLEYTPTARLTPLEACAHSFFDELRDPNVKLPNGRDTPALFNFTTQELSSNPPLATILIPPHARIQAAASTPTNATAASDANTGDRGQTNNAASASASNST

SMILES	IC50 (FLT3; [8]) [µM]	IC50 [3] [µM]	micosomal stability Cl [1] [% Qh]	IC50 (Human GSK3beta; [9]) [µM]	IC50 [2, 10] [µM]	IC50 [2, 11] [µM]	microsomal stability Cl ([1]; Table 2b) [% Qh]	also measured
C[C@@H](Oc1nc(-c2ccc(C(F)(F)F)nc2)cc2ncccc12)[C@H]1CNC(=O)C1 [Example 3, reference compound]								IC50 (FLT3; [5]): 1.82 µM; microsomal stability Cl ([1]; Table 2c): 24 % Qh; IC50 (Human GSK3beta; [6]): > 10 µM; IC50 [2, 7]: 1.04 µM
Cc1nc2cc(-c3cnn(C(C)(C)C)c3)cc(O[C@H](C)[C@H]3CNC(=O)C3)c2[nH]1 [Example 6, (4R)-4-[(1R)-1-[[6-(1-tert-Butylpyrazol-4-yl)-2-methyl-1H-benzimidazol-4-yl]oxy]ethyl]pyrrolidin-2-one]	35.8	0.151	<23	> 10	> 50	> 50		
Cc1cc2c(O[C@H](C)[C@H]3CNC(=O)C3)cc(-c3cnn(C(C)(C)C)c3)cn2n1 [Example 34, (4R)-4-[(1R)-1-[6-(1-tert-Butylpyrazol-4-yl)-2-methyl-pyrazolo[1,5-a]pyridin-4-yl]oxyethyl]pyrrolidin-2-one]	7.93	0.0122	<23	> 10	> 50	> 50		
C[C@@H](Oc1nc(-c2ccc(N3CCOCC3)nc2)cc2ncccc12)[C@H]1CNC(=O)C1 [Example 45, reference compound]								IC50 (FLT3; [5]): 0.1 µM; microsomal stability Cl ([1]; Table 2c): 53 % Qh; IC50 (Human GSK3beta; [6]): > 10 µM; IC50 [2, 7]: 0.086 µM
Cc1nc2cc(-c3cnn(C(C)(C)C)c3)nc(O[C@H](C)[C@H]3CNC(=O)C3)n2n1 [Example 84, (4R)-4-[(1R)-1-[[7-(1-tert-Butylpyrazol-4-yl)-2-methyl-[1,2,4]triazolo[1,5-c]pyrimidin-5-yl]oxy]ethyl]pyrrolidin-2-one]	> 50	0.637	<23	> 10	> 50	> 50		IC50 (FLT3; Table 2a, compounds of the invention, read-out: FLT3-inhibition IC50-value): > 50 µM
Cc1c(-c2cc(O[C@H](C)[C@H]3CNC(=O)C3)c3cccnc3c2)cnn1C [Example 112]							<23	
CCCn1cc(-c2cc(O[C@H](C)[C@H]3CNC(=O)C3)c3cccnc3c2)cn1 [Example 114]							26	
CC(C)n1cc(-c2cc(O[C@H](C)[C@H]3CNC(=O)C3)c3cccnc3c2)cn1 [Example 115]							<23	
COc1cc(Nc2ncc(F)c(Nc3ccc4c(n3)N(COP(=O)(O)O)C(=O)C(C)(C)O4)n2)cc(OC)c1OC [R788 (R406)]								platelet counts [4]: improved platelet counts
